Laboratory results from paper PMC5885141 (Molecular imaging and biology : MIB : the official …, 2014).
pIC50: −log10 of the molar value. IR800 = IRDye800CW

Legend:
[1] = test system: GRPr and NMB-R; conditions: with or without a chelated metal ion; same assay as in Fig. 2; ref [31]; cited from earlier work
[2] = test system: PC-3 cells; assay: Direct binding assay in PC-3 cells by fluorescence microscopy; assay type: cell-based, human; conditions: 2 μM, 2 h incubation

| Substance | pIC50 [1] | Direct binding to PC-3 cells (fluorescence microscopy) [2] |
| --- | --- | --- |
| DO3A-CH2CO-G-ABz4-QWAVGHLM-NH2 [AMBA] | 8.30 to 8.70 |  |
| IR800-GSG-t-BBN: IR800-linker-QWAVGHLM-NH2 with linker = GSG (IR800-GSGQWAVGHLM-NH2) |  | bound to PC-3 cells to widely different extents |
